Measurements as given in ChEMBL document CHEMBL4270595, “Design, synthesis, antiproliferative activity, molecular docking and cell cycle analysis of some novel (morpholinosulfonyl) isatins with potential EGFR inhibitory activity” (Eur J Med Chem, 2018).
pIC50: −log10 of the molar value. Activity calls are given as the source filed them. No cut-off for these calls is given here.

Assays:
MCF7 = test: Cytotoxicity against human MCF7 cells after 24 hrs by SRB assay; assay type: functional, cell-based; settings: MCF7, 24 h
HepG2 [1] = test: Cytotoxicity against human HepG2 cells after 24 hrs by SRB assay; assay type: functional, cell-based; settings: HepG2, 24 h
HCT-116 = test: Cytotoxicity against human HCT116 cells after 24 hrs by SRB assay; assay type: functional, cell-based; settings: HCT-116, 24 h
[2] = Cytotoxicity against human Caco cells after 24 hrs by SRB assay; assay type: functional, cell-based
WI-38 = test: Cytotoxicity against human WI38 cells after 24 hrs by SRB assay; assay type: cell-based; settings: WI-38, 24 h
[3] = target: T1, Epidermal growth factor receptor (Homo sapiens, UniProt P00533); test: Inhibition of EGFR in human HepG2 cells; assay type: cell-based
[4] = Inhibition of recombinant human FGFR preincubated for 5 mins followed by ATP addition and measured after 30 mind by HTRF assay
[5] = target: Epidermal growth factor receptor (Homo sapiens, UniProt P00533, L858R); test: Inhibition of recombinant human EGFR L858R mutant expressed in baculovirus infected insect cells preincubated for 5 mins followed by ATP addition and measured after 30 mins by HTRF assay; assay type: cell-based
HepG2 [6] = test: Induction of apoptosis in human HepG2 cells assessed as early apoptotic cells at 10 uM after 24 hrs by Annexin V-FITC/ propidium iodide staining-based flow cytometric analysis (reference value: 0.51%); assay type: functional
[7] = target: T1, Epidermal growth factor receptor; test: Inhibition of EGFR in human HepG2 cells assessed as suppression of EGFR phosphorylation after 8 hrs by Western blot analysis; assay type: cell-based
HepG2 [8] = test: Cell cycle arrest in human HepG2 cells assessed as accumulation of cells at S phase at 10 uM after 24 hrs by flow cytometric analysis (reference value: 31.31%); assay type: functional
HepG2 [9] = test: Cell cycle arrest in human HepG2 cells assessed as accumulation of cells at G2/M phase at 10 uM after 24 hrs by flow cytometric analysis (reference value: 16.38%); assay type: functional
HepG2 [10] = test: Induction of apoptosis in human HepG2 cells assessed as viable cells at 10 uM after 24 hrs by Annexin V-FITC/ propidium iodide staining-based flow cytometric analysis (reference value: 96.09%); assay type: functional; settings: HepG2, 24 h, read-out: Activity
HepG2 [11] = test: Induction of apoptosis in human HepG2 cells assessed as necrotic cells at 10 uM after 24 hrs by Annexin V-FITC/ propidium iodide staining-based flow cytometric analysis (reference value: 1.28%); assay type: functional
HepG2 [12] = test: Cell cycle arrest in human HepG2 cells assessed as accumulation of cells at G0/G1 phase at 10 uM after 24 hrs by flow cytometric analysis (reference value: 52.31%); assay type: functional
[13] = target: Epidermal growth factor receptor (Homo sapiens, UniProt P00533, T790M); test: biochemical; assay type: cell-based, Sf21
[14] = target: T1, Epidermal growth factor receptor; test: Inhibition of EGFR in human HepG2 cells assessed as suppression of ERK phosphorylation up to 2 uM after 8 hrs by Western blot analysis; assay type: cell-based
HepG2 [15] = test: Induction of apoptosis in human HepG2 cells assessed as late apoptotic cells at 10 uM after 24 hrs by Annexin V-FITC/ propidium iodide staining-based flow cytometric analysis (reference value: […]); assay type: functional
HepG2 [16] = test: Cell cycle arrest in human HepG2 cells assessed as accumulation of cells at pre-G1 phase at 10 uM after 24 hrs by flow cytometric analysis (reference value: 2.04%); assay type: functional
[17] = target: Receptor tyrosine-protein kinase erbB-2 (Homo sapiens, UniProt P04626); test: Inhibition of recombinant human GST-tagged HER2 (676-end) expressed in baculovirus infected Sf9 insect cells preincubated for 5 mins followed by ATP addition and measured after 30 mins by HTRF assay
[18] = target: Vascular endothelial growth factor receptor (Homo sapiens, UniProt P17948+P35916+P35968); assay type: cell-based; settings: sf9
Description: Inhibition of GST-tagged recombinant human VEGFR (789-end) expressed in baculovirus infected Sf9 insect cells preincubated for 5 mins followed by ATP addition and measured after 30 mins by HTRF assay

T1 sequence (P00533 whole entry): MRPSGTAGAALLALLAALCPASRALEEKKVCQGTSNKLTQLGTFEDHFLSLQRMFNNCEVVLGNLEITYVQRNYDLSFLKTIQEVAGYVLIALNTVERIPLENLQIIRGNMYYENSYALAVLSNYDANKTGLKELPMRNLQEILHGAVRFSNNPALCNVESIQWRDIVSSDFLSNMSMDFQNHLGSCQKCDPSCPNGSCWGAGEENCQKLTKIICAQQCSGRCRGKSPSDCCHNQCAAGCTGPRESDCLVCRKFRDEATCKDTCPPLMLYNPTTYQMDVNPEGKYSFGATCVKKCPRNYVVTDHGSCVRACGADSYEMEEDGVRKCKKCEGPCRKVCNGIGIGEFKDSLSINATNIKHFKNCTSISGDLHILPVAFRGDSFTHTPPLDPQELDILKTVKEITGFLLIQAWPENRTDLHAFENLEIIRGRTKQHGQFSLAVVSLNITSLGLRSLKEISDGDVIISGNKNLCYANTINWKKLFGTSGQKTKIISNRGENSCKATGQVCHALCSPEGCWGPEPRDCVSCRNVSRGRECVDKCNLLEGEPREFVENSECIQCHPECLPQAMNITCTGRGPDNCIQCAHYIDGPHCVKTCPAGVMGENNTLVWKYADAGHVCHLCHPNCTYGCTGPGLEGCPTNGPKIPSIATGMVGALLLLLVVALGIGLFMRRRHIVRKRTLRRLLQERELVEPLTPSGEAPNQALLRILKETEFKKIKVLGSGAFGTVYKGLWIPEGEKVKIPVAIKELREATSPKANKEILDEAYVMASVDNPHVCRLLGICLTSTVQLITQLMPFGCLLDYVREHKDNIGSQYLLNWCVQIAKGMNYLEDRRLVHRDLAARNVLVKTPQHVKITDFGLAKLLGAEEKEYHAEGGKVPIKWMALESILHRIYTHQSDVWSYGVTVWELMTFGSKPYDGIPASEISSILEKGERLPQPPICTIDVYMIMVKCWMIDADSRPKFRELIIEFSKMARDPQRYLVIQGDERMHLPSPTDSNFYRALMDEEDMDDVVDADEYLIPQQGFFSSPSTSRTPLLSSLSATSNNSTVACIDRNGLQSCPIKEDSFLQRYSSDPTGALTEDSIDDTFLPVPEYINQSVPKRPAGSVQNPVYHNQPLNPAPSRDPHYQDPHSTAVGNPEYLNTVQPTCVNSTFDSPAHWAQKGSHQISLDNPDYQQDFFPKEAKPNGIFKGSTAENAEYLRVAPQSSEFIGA
Sequence of Receptor tyrosine-protein kinase erbB-2 (P04626 whole entry): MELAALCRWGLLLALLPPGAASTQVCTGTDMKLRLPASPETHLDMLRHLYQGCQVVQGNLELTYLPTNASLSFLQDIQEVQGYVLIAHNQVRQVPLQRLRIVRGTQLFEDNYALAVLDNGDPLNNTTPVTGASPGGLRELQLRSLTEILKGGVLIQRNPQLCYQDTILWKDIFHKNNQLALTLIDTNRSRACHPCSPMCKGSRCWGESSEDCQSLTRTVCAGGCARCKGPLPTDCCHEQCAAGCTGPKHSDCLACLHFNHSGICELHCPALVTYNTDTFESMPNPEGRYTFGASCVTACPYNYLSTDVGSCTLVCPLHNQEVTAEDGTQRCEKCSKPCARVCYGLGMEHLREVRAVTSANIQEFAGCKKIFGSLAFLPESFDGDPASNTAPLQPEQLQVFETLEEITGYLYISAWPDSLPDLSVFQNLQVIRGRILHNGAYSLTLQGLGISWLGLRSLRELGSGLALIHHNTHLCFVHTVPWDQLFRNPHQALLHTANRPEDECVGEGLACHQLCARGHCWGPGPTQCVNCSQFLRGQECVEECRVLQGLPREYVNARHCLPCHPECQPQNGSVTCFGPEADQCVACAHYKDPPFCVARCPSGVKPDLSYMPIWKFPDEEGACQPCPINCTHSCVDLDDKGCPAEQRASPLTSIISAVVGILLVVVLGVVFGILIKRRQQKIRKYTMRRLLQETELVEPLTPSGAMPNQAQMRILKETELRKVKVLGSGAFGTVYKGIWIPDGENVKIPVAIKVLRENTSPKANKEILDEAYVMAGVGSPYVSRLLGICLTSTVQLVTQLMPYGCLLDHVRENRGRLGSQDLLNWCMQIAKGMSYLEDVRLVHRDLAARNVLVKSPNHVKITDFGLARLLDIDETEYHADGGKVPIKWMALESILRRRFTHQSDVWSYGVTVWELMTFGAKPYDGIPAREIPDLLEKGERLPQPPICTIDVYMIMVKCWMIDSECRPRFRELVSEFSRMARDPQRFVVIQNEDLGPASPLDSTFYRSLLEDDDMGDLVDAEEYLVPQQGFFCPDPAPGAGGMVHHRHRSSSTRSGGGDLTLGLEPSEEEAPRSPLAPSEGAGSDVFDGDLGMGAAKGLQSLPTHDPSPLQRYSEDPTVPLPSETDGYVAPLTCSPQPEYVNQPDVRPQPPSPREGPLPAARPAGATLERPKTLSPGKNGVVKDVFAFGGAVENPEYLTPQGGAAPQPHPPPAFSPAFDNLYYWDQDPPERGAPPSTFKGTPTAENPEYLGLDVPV
Sequence of Epidermal growth factor receptor (Homo sapiens, UniProt P00533, T790M) (P00533 25-1210 T790M limits assumed): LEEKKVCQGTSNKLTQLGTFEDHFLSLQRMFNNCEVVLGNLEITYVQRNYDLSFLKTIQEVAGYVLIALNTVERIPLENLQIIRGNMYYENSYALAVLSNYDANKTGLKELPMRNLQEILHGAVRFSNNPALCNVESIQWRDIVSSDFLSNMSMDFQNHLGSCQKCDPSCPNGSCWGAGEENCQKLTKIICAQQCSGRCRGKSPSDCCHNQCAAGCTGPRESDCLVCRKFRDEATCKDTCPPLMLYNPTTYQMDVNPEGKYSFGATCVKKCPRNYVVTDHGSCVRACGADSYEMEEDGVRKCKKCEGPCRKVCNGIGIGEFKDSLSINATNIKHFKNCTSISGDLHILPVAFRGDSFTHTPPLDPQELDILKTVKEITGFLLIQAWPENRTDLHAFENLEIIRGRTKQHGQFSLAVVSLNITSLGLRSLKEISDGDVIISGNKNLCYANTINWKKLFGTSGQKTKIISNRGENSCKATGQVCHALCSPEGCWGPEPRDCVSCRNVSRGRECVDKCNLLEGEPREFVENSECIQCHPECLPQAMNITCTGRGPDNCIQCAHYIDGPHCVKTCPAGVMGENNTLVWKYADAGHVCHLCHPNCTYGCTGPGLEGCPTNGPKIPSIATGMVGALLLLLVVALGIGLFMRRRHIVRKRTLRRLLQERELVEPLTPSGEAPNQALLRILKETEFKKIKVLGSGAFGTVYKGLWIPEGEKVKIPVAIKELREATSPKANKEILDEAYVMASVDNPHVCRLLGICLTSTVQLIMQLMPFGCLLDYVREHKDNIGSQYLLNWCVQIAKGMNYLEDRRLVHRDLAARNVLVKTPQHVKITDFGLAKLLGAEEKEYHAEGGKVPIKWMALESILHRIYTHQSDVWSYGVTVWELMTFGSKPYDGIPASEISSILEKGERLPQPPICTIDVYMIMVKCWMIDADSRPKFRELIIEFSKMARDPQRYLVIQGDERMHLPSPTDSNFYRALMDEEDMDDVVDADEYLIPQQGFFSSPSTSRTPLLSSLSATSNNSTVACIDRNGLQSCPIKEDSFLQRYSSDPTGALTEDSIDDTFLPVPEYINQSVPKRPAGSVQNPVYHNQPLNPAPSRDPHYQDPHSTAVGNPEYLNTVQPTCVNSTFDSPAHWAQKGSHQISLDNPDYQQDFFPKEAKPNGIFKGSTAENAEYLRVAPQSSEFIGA
Sequence of Epidermal growth factor receptor (Homo sapiens, UniProt P00533, L858R) (P00533 25-1210 L858R limits assumed): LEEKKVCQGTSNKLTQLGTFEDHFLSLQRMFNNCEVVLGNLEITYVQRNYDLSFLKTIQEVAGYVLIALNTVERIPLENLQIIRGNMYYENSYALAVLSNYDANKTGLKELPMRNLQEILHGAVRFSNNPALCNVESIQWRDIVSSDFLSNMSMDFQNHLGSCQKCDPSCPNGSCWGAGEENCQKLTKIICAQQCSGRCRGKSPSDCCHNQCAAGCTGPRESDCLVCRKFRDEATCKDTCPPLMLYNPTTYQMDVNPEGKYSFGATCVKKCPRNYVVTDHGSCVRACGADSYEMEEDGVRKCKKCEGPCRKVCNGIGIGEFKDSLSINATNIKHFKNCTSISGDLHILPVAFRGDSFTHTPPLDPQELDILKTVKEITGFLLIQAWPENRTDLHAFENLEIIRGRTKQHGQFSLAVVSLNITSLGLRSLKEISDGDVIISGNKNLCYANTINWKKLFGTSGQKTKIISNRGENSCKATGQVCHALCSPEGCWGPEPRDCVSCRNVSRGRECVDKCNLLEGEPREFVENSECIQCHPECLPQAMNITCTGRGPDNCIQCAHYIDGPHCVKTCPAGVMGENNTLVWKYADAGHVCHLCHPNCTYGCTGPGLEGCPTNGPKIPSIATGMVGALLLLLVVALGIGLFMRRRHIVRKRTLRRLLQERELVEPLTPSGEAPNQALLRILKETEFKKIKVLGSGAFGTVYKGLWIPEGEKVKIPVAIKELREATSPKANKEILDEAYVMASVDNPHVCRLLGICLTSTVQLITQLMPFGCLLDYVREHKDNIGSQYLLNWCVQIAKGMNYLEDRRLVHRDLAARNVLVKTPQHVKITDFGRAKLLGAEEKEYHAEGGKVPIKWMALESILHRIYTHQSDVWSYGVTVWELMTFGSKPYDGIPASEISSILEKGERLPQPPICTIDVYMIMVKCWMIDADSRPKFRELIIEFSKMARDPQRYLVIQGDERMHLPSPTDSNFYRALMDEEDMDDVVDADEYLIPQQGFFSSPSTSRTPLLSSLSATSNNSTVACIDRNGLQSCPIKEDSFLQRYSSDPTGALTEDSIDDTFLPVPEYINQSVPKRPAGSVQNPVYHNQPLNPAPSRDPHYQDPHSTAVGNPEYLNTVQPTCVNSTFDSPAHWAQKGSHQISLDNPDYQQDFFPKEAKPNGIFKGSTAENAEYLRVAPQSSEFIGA

## COc1ccc(C2=C(C#N)C3=NC4=Nc5ccc(S(=O)(=O)N6CCOCC6)cc5C4=NC3C(O)=C2C#N)cc1 (stereo not drawn)
MCF7
  pIC50: 4.92
HepG2 [1]
  pIC50: 5.14
HCT-116
  pIC50: 5.01
[2]
  pIC50: 5.14
WI-38
  pIC50: 3.49
[3]
  pIC50: 6.97

## COc1ccc(-c2c(C#N)c(N)n(/N=C3\C(=O)Nc4ccc(S(=O)(=O)N5CCOCC5)cc43)c(=O)c2C#N)cc1
MCF7
  pIC50: 4.48
HepG2 [1]
  pIC50: 4.82
HCT-116
  pIC50: 4.74
[2]
  pIC50: 4.99
WI-38
  pIC50: 3.65
[3]
  pIC50: 5.71

## O=S(=O)(c1ccc2[nH]c3nc4ccccc4nc3c2c1)N1CCOCC1
MCF7
  pIC50: 4.39
HepG2 [1]
  pIC50: 4.57
HCT-116
  pIC50: 4.72
[2]
  pIC50: 4.72
WI-38
  pIC50: 3.38

## O=C1Nc2ccc(S(=O)(=O)N3CCOCC3)cc2/C1=N/c1ccc(/N=C2\C(=O)Nc3ccc(S(=O)(=O)N4CCOCC4)cc32)cc1
MCF7
  pIC50: 4.96
HepG2 [1]
  pIC50: 5.05
HCT-116
  pIC50: 5.13
[2]
  pIC50: 5.04
WI-38
  pIC50: 3.69
[3]
  pIC50: 5.93

## O=C1Nc2ccc(S(=O)(=O)N3CCOCC3)cc2/C1=N/NC(=O)c1ccccc1
MCF7
  pIC50: 3.38
HepG2 [1]
  pIC50: 4.74
HCT-116
  pIC50: 4.54
[2]
  pIC50: 4.44
WI-38
  pIC50: 3.53

## O=C1Nc2ccc(S(=O)(=O)N3CCOCC3)cc2/C1=N/NS(=O)(=O)c1ccccc1
MCF7
  pIC50: 4.60
HepG2 [1]
  pIC50: 4.62
HCT-116
  pIC50: 4.88
[2]
  pIC50: 4.78
WI-38
  pIC50: 3.52

## C#Cc1cccc(Nc2ncnc3cc(OCCOC)c(OCCOC)cc23)c1 [ERLOTINIB]
[4]
  pIC50: 7.52

## O=C1Nc2ccc(S(=O)(=O)N3CCOCC3)cc2C1=O
MCF7
  pIC50: 4.17
HepG2 [1]
  pIC50: 4.54
HCT-116
  pIC50: 4.22
[2]
  pIC50: 4.34
WI-38
  pIC50: 3.23

## Cc1ccc(S(=O)(=O)N/N=C2\C(=O)Nc3ccc(S(=O)(=O)N4CCOCC4)cc32)cc1
MCF7
  pIC50: 4.42
HepG2 [1]
  pIC50: 4.61
HCT-116
  pIC50: 4.63
[2]
  pIC50: 4.84
WI-38
  pIC50: 3.58

## N#CCC(=O)N/N=C1\C(=O)Nc2ccc(S(=O)(=O)N3CCOCC3)cc21
MCF7
  pIC50: 4.56
HepG2 [1]
  pIC50: 5.12
[5]
  pIC50: 7.47
[4]
  pIC50: 6.42
HepG2 [6]
  Activity: 3.17%
[7]
  inhibition: Dose-dependent effect
HepG2 [8]
  Activity: 15.58%
HepG2 [9]
  Activity: 44.11%
HepG2 [10]
  viability at 10 µM: 83.6%
HepG2 [11]
  Activity: 3.41%
HCT-116
  pIC50: 4.99
HepG2 [12]
  Activity: 40.31%
[13]
  pIC50: 6.86
[14]
  inhibition: Active
HepG2 [15]
  Activity: 7.51%
HepG2 [16]
  Activity: 14.09%
[17]
  pIC50: 6.62
[2]
  pIC50: 5.02
[18]
  IC50: 0.276 µM
WI-38
  pIC50: 3.52
[3]
  pIC50: 7.64

## CC(=O)c1cccc(/N=C2\C(=O)Nc3ccc(S(=O)(=O)N4CCOCC4)cc32)c1
MCF7
  pIC50: 4.41
HepG2 [1]
  pIC50: 4.54
HCT-116
  pIC50: 4.54
[2]
  pIC50: 4.67
WI-38
  pIC50: 3.75

## N/N=C1\C(=O)Nc2ccc(S(=O)(=O)N3CCOCC3)cc21
MCF7
  pIC50: 4.33
HepG2 [1]
  pIC50: 4.49
HCT-116
  pIC50: 4.44
[2]
  pIC50: 4.30
WI-38
  pIC50: 3.41

## O=C1Nc2ccc(S(=O)(=O)N3CCOCC3)cc2/C1=N/c1ccc(O)cc1
MCF7
  pIC50: 4.28
HepG2 [1]
  pIC50: 4.98
HCT-116
  pIC50: 4.56
[2]
  pIC50: 4.75
WI-38
  pIC50: 3.59
[3]
  pIC50: 6.12

## O=C1Nc2ccc(S(=O)(=O)N3CCOCC3)cc2/C1=N/c1cccc(C(F)(F)F)c1
MCF7
  pIC50: 4.39
HepG2 [1]
  pIC50: 4.84
HCT-116
  pIC50: 4.80
[2]
  pIC50: 4.67
WI-38
  pIC50: 3.65

## O=C1Nc2ccc(S(=O)(=O)N3CCOCC3)cc2/C1=N/c1ccc(Br)cc1
MCF7
  pIC50: 4.35
HepG2 [1]
  pIC50: 4.92
HCT-116
  pIC50: 4.82
[2]
  pIC50: 4.53
WI-38
  pIC50: 3.43

## N=c1oc2ccccc2cc1C(=O)N/N=C1\C(=O)Nc2ccc(S(=O)(=O)N3CCOCC3)cc21
MCF7
  pIC50: 4.68
HepG2 [1]
  pIC50: 5.11
HCT-116
  pIC50: 5.17
[2]
  pIC50: 5.09
WI-38
  pIC50: 3.88
[3]
  pIC50: 6.69

## COc1cccc2c1C(=O)c1c(O)c3c(c(O)c1C2=O)C[C@@](O)(C(=O)CO)C[C@@H]3O[C@H]1C[C@H](N)[C@H](O)[C@H](C)O1 [DOXORUBICIN]
HepG2 [1]
  pIC50: 5.13
HCT-116
  pIC50: 5.08
[2]
  pIC50: 5.23

## O=C1Nc2ccc(S(=O)(=O)N3CCOCC3)cc2/C1=N/c1ccc(C(=O)O)cc1
MCF7
  pIC50: 4.57
HepG2 [1]
  pIC50: 4.64
HCT-116
  pIC50: 4.63
[2]
  pIC50: 4.59
WI-38
  pIC50: 3.50

## Cc1ccc(/N=C2\C(=O)Nc3ccc(S(=O)(=O)N4CCOCC4)cc32)cc1
MCF7
  pIC50: 4.25
HepG2 [1]
  pIC50: 4.89
HCT-116
  pIC50: 4.72
[2]
  pIC50: 4.48
WI-38
  pIC50: 3.51

## O=C1Nc2ccc(S(=O)(=O)N3CCOCC3)cc2/C1=N/c1ccc(Cl)cc1
MCF7
  pIC50: 4.35
HepG2 [1]
  pIC50: 4.93
HCT-116
  pIC50: 4.61
[2]
  pIC50: 4.63
WI-38
  pIC50: 3.33

## COC(=O)c1ccccc1/N=C1\C(=O)Nc2ccc(S(=O)(=O)N3CCOCC3)cc21
MCF7
  pIC50: 4.50
HepG2 [1]
  pIC50: 4.85
HCT-116
  pIC50: 4.73
[2]
  pIC50: 4.63
WI-38
  pIC50: 3.64

## CS(=O)(=O)CCNCc1ccc(-c2ccc3ncnc(Nc4ccc(OCc5cccc(F)c5)c(Cl)c4)c3c2)o1 [LAPATINIB]
MCF7
  pIC50: 5.30
HepG2 [1]
  pIC50: 4.93
HCT-116
  pIC50: 5.23
[2]
  pIC50: 4.92

## O=C1Nc2ccc(S(=O)(=O)N3CCOCC3)cc2/C1=N/Nc1ccccc1
MCF7
  pIC50: 4.52
HepG2 [1]
  pIC50: 4.81
HepG2 [6]
  Activity: 4.28%
HepG2 [8]
  Activity: 14.77%
HepG2 [9]
  Activity: 48.31%
HepG2 [10]
  viability at 10 µM: 81.4%
HepG2 [11]
  Activity: 2.69%
HCT-116
  pIC50: 4.98
HepG2 [12]
  Activity: 38.92%
HepG2 [15]
  Activity: 9.49%
HepG2 [16]
  Activity: 16.46%
[2]
  pIC50: 4.70
WI-38
  pIC50: 3.58
[3]
  pIC50: 7.34

## CC(=O)N/N=C1\C(=O)Nc2ccc(S(=O)(=O)N3CCOCC3)cc21
MCF7
  pIC50: 4.25
HepG2 [1]
  pIC50: 4.56
HCT-116
  pIC50: 4.54
[2]
  pIC50: 4.74
WI-38
  pIC50: 3.49
